The target in one series is T1, rHDAC3 (Homo sapiens, UniProt O15379).
T1 construct: FLAG; made in house; host or cells: baculovirus-infected Sf21 insect cells
In words: rHDAC3 enzymatic assay (recombinant FLAG-HDAC3). The format is biochemical. Conditions: FLAG-HDAC3 from insect cells; 6 μM Ac-NH-GGK(Ac)-AMC, 2 h at 30° C.; read-out: rHDAC3 [pIC50] (converted). From the text: (§1) Human HDAC1 and HDAC6 fused with the FLAG epitope are stably expressed in HEK293 cells while human HDAC3 and HDAC8 fused with the FLAG epitope are overexpressed in baculo-virus infected insect (Sf21) cells. To ensure stability of FLAG-HDAC3 the SMRT protein is co-expressed in the corresponding insect cells. […] FLAG-HDAC3 and FLAG-HDAC8 are also purified by M2-agarose affinity chromatography after mass cultivation of the insect cells and cell lysis.
(§2) The HDAC enzyme activity assay is done as described by Wegener et al. (Chem. & Biol. 10, 61-68, 2003). Briefly 40 μl of a 1:100 dilution (=0.4 μl) nuclear HeLa extract (mixture of class I and II HDACs), 29 μl enzyme buffer (15 mM Tris HCl pH 8.1, 0.25 mM EDTA, 250 mM NaCl, 10% v:v glycerol) and 1 μl test compound are added to a well of a 96 well microtiter plate and reaction started by addition of 3 μl substrate (Ac-NH-GGK(Ac)-AMC; final concentration 25 μM and final volume […]). […] After incubation at room temperature for further 40 min, fluorescence is measured using a Wallac Victor 1420 multilabel counter (Ex 355 nm, Em 460 nm) for quantification of AMC (7-amino-4-methylcoumarin) generated by trypsine cleavage of the deacetylated peptide. […] The corresponding pIC50 values of the compounds for HDAC inhibitory activity are determined from the concentration-effect curves by means of non-linear regression (Graphpad Prism software).
(§3) The HDAC1, HDAC3 and HDAC6 enzymatic assays are done with slight modifications with recombinant FLAG-HDAC1 and FLAG-HDAC6 proteins isolated from HEK293 cell lysates or recombinant FLAG-HDAC3 isolated from insect cells, respectively. The HDAC8 enzymatic assay using recombinant FLAG-HDAC8 isolated from insect cells is done with a different substrate. About 4.5 ng/well FLAG-HDAC1 and 3.1 ng/well FLAG-HDAC6 (dependent on batches and specific activity) are incubated with 6 μM or 10 μM Ac-NH-GGK(Ac)-AMC substrate, respectively, for 3 h at 30° C. About 1.7 ng/well FLAG-HDAC3 is incubated with 6 μM Ac-NH-GGK(Ac)-AMC substrate for 2 h at 30° C., while approximately 130 ng/well FLAG-HDAC8 is incubated with 50 μM Ac-RHK(Ac)K(Ac)-AMC substrate for 3 h at 30° C. Termination of the reaction and all further steps are done as described for HeLa cell nuclear extracts as a source for HDAC enzymatic activity. The corresponding pIC50 values of the compounds for HDAC1, HDAC3, HDAC6 and HDAC8 inhibitory activity are determined from the concentration-effect curves by means of non-linear regression.

Series [1] in a line: Cellular cytotoxicity assay (Alamar Blue/Resazurin), A549. In kind it is cell-based. The following applies: human, A549 cells; A549, 72 hours incubation, Resazurin; read-out: A549 Cytotoxicity [pIC50] (converted). The protocol:
(§4) The anti-proliferative activity of the compounds as described herein, is evaluated with various solid and hematological cancer cell lines using the Alamar Blue (Resazurin) cell viability assay (O'Brien et al, Eur J Biochem 267, 5421-5426, 2000). Resazurin is reduced to the fluorescent resorufin by cellular dehydrogenase activity, correlating with viable, proliferating cells. Test compounds are dissolved as 20 mM solutions in dimethylsulfoxide (DMSO) and subsequently diluted in semi-logarithmic steps. The cancer cell lines are seeded into 96 well flat bottom plates at respective cell densities in a volume of 200 μl per well to allow continuous proliferation during the experiment. 24 hours after seeding 1 μl each of the compound dilutions is added into each well of the 96 well plate. Wells containing untreated control cells are filled with 200 μl DMEM medium containing 0.5% v:v DMSO. The cells are then incubated with the substances for 72 hours at 37° C. in a humidified atmosphere containing 5% carbon dioxide. To determine the viability of the cells, 20 μl of a Resazurin solution (Sigma; 90 mg/l) are added. After 4 hours incubation at 37° C. the fluorescence is measured at an extinction of 544 nm and an emission of 590 nm. For the calculation of the cell viability the emission value from untreated cells is set as 100% viability and the emission rates of treated cells are set in relation to the values of untreated cells. Viabilities are expressed as % values. The corresponding pIC50 values of the compounds for cytotoxic activity are determined from the concentration-effect curves by means of non-linear regression.
A general note: Alamar Blue is a resazurin reagent that responds to reducing activity.

For the next series, the target named is T2, rHDAC1 (Homo sapiens, UniProt Q13547).
T2 construct: FLAG; made in house
T2 sequence (Q13547 whole entry): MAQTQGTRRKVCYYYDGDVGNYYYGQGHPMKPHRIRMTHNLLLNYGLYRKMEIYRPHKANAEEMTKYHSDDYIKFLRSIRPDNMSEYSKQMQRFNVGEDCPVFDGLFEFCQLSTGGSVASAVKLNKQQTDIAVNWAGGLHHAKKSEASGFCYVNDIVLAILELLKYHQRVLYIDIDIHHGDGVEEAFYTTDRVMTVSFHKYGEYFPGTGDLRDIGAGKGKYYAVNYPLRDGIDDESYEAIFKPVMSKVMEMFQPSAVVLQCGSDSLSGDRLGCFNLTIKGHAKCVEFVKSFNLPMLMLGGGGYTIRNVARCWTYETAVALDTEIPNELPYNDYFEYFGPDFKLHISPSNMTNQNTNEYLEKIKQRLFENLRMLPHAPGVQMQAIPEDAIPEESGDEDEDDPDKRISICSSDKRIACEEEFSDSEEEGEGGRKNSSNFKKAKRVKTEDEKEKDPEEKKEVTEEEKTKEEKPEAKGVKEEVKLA
Put plainly: rHDAC1 enzymatic assay (recombinant FLAG-HDAC1). In kind it is biochemical. The following applies: FLAG-HDAC1 from HEK293; 6 μM Ac-NH-GGK(Ac)-AMC, 3 h at 30° C.; read-out: rHDAC1 [pIC50] (converted).
From the text: as §1, §2, §3

Series [2] is described as follows: Cellular cytotoxicity assay (Alamar Blue/Resazurin), HeLa. In kind it is cell-based. The following applies: human, HeLa cells, 72 hours incubation, Resazurin, read-out: HeLa Cytotoxicity [pIC50] (converted). The protocol:
as §4

Series [3] in a line: Cellular cytotoxicity assay (Alamar Blue/Resazurin), RKOp21. The format is cell-based. The following applies: human, RKOp21 cells; RKOp21, 72 hours incubation, Resazurin; read-out: RKOp21 Cytotoxicity [pIC50] (converted). Here is the method:
as §4

The structures appear in SMILES notation. Where a name gives a salt, the structure may show the parent alone. A value given as a limit tells only on which side of the number the result lay.

T1 sequence (O15379 whole entry): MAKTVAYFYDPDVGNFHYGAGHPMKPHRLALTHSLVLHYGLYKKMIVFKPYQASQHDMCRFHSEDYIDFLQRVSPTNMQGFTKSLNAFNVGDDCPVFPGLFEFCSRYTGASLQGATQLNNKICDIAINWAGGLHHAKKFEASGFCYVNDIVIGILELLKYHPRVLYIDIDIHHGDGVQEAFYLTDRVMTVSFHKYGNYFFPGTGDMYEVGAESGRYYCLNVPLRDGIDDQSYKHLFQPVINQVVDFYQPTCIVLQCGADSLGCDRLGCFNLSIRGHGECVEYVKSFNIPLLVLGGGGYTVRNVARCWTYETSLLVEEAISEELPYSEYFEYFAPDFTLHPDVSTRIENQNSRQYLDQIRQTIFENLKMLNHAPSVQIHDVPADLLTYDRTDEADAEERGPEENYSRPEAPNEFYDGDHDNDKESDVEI
T1 sequence (Q9Y618 whole entry partner): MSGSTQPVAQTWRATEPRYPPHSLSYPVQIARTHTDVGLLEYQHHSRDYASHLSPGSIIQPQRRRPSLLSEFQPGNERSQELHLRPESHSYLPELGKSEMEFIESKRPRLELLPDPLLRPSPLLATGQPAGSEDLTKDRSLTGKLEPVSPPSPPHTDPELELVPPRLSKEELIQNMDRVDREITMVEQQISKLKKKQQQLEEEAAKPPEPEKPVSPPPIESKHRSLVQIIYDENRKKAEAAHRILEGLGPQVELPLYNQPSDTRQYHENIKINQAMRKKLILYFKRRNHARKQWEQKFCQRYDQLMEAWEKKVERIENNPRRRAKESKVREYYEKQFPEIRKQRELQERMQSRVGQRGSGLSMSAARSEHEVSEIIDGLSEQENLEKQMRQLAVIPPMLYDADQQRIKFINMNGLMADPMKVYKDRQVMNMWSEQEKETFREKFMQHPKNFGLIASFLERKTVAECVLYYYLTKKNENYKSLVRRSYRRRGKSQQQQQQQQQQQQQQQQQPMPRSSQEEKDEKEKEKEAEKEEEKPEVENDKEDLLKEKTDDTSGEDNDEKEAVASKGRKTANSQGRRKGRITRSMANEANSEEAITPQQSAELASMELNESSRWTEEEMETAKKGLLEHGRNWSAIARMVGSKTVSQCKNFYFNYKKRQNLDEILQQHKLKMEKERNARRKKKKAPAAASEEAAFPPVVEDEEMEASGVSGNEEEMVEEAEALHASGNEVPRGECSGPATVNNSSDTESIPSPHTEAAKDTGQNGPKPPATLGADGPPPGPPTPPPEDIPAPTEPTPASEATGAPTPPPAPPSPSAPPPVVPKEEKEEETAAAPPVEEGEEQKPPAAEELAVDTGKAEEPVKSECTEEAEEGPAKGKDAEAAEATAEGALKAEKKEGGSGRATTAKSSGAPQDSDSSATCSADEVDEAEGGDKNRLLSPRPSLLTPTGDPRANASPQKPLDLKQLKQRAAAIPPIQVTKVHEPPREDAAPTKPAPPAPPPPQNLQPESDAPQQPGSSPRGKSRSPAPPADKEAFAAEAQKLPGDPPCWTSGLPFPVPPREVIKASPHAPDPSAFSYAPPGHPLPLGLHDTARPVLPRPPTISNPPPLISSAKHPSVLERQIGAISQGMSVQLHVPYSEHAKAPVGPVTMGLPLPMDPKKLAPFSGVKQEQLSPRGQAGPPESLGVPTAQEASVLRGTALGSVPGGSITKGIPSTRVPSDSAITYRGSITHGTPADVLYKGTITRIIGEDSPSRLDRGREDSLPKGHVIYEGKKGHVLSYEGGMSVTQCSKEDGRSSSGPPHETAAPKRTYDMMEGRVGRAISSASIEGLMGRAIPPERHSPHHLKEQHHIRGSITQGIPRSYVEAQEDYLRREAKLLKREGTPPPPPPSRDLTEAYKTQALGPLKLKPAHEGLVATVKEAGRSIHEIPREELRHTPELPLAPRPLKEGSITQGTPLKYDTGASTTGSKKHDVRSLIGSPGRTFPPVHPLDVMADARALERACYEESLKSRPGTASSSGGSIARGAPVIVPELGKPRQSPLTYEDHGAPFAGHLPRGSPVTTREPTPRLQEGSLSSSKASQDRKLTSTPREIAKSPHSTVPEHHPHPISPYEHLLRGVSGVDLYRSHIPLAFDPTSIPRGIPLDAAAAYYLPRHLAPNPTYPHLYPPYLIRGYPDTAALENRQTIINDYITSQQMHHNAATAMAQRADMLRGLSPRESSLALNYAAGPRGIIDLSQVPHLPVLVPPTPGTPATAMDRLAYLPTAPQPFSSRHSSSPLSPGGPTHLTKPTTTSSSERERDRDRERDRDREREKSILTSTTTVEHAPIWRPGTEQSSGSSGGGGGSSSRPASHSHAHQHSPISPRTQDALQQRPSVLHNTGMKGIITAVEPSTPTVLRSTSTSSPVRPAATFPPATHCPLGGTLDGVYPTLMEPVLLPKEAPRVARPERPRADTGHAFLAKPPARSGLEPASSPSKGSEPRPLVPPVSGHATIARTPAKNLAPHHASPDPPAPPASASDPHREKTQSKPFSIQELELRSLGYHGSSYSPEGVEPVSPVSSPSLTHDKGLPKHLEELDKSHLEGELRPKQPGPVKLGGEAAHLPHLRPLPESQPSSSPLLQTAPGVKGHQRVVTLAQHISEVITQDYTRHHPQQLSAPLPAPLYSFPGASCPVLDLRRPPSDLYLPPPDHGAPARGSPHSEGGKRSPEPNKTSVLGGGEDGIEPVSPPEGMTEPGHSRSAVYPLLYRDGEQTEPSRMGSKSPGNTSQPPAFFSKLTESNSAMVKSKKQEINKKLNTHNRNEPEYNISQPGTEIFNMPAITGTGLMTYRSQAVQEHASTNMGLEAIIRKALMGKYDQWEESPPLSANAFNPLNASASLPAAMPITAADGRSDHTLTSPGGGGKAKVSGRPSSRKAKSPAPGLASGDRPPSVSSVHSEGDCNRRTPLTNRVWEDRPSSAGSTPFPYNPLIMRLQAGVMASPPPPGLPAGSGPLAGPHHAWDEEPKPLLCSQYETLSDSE

Regarding `O=C(NO)c1ccc2c(c1)CCN(C(=O)Cc1c[nH]c3ccccc13)C2` [Example 1, N-Hydroxy-2-(indol-3-ylacetyl)-1,2,3,4-tetrahydroisoquinoline-6-carboxamide hydrochloride], the IC50 on rHDAC3 was 1 to 10 µM; on rHDAC1, 0.1 to 10 µM. For the same compound, the IC50 at 72 h in series [1], in series [2] and in series [3] was 1 to 100 µM in each case.
On to `O=C(NO)c1ccc2c(c1)CCN(C(=O)C1CCC1)C2` [Example 3, 2-(Cyclobutylcarbonyl)-N-hydroxy-1,2,3,4-tetrahydroisoquinoline-6-carboxamide], for which the IC50 at rHDAC3 was 10 to 100 µM; on rHDAC1, 0.1 to 10 µM. Also, the IC50 at 72 h in series [1] was above 100 µM; in series [2] it was 1 to 100 µM; in series [3], above 100 µM.
On to `CNC(=O)N1CCc2cc(C(=O)NO)ccc2C1` [Example 4, N6-Hydroxy-N2-methyl-3,4-dihydroisoquinoline-2,6(1H)-dicarboxamide], for which the IC50 at rHDAC3 was 10 to 100 µM; at rHDAC1, 0.1 to 10 µM. In addition, the IC50 at 72 h in series [1], in series [2] and in series [3] was above 100 µM throughout.
As to `COCCCNC(=O)N1CCc2cc(C(=O)NO)ccc2C1` [Example 5, N6-Hydroxy-N2-(3-methoxypropyl)-3,4-dihydroisoquinoline-2,6(1H)-dicarboxamide], the IC50 is 10 to 100 µM at rHDAC3 and 0.1 to 10 µM on rHDAC1. The IC50 at 72 h in series [1], in series [2] and in series [3] was above 100 µM each time.
In the case of `COCCCOC(=O)N1CCc2cc(C(=O)NO)ccc2C1` [Example 6, 3-Methoxypropyl-6-(hydroxycarbamoyl)-3,4-dihydroisoquinoline-2(1H)-carboxylate], the IC50 at rHDAC3 and at rHDAC1 was 10 to 100 µM each time. In addition, the IC50 at 72 h in series [1], in series [2] and in series [3] was above 100 µM each time.
On to `O=C(NO)c1ccc2c(c1)CCN(C(=O)CCc1cccnc1)C2` [Example 7, N-Hydroxy-2-(3-pyridin-3-ylpropanoyl)-1,2,3,4-tetrahydroisoquinoline-6-carboxamide hydrochloride], for which the IC50 on rHDAC3 and at rHDAC1 was 10 to 100 µM throughout. The IC50 at 72 h in series [1] and in series [2] was above 100 µM in each case.
Regarding `O=C(NO)c1ccc2c(c1)CCN(C(=O)Cc1cccnc1)C2` [Example 8, N-Hydroxy-2-(pyridin-3-ylacetyl)-1,2,3,4-tetrahydroisoquinoline-6-carboxamide hydrochloride], the IC50 on rHDAC3 and on rHDAC1 was 10 to 100 µM throughout. The IC50 at 72 h in series [1], in series [2] and in series [3] was above 100 µM in each case.
Consider `CN(C)CCCC(=O)N1CCc2cc(C(=O)NO)ccc2C1` [Example 9, 2-[4-(Dimethylamino)butanoyl]-N-hydroxy-1,2,3,4-tetrahydroisoquinoline-6-carboxamide hydrochloride], for which the results for the IC50 at rHDAC3 and on rHDAC1 were 10 to 100 µM and 0.1 to 10 µM, respectively. In addition, the IC50 at 72 h is 1 to 100 µM in series [1], 1 to 100 µM in series [2] and above 100 µM in series [3].
Consider `Cc1nccn1CC(=O)N1CCc2cc(C(=O)NO)ccc2C1` [Example 10, N-Hydroxy-2-[(2-methyl-1H-imidazol-1-yl)acetyl]-1,2,3,4-tetrahydroisoquinoline-6-carboxamide hydrochloride], for which the IC50 at rHDAC3 and at rHDAC1 was 10 to 100 µM in each case. For the same compound, the IC50 at 72 h in series [1] and in series [2] was above 100 µM throughout.
For the compound `CC(=O)N1CCc2cc(C(=O)NO)ccc2C1` [Example 12, 2-Acetyl-N-hydroxy-1,2,3,4-tetrahydroisoquinoline-6-carboxamide], the IC50 on rHDAC3 and at rHDAC1 was 10 to 100 µM in each case. Also, the IC50 at 72 h in series [1] and in series [2] was above 100 µM throughout.
On to `O=C(NO)c1ccc2c(c1)CCN(C(=O)C1CCOC1)C2` (stereo not shown) [Example 13, N-Hydroxy-2-(tetrahydrofuran-3-ylcarbonyl)-1,2,3,4-tetrahydroisoquinoline-6-carboxamide], for which the IC50 on rHDAC3 and on rHDAC1 was 10 to 100 µM each time. The IC50 at 72 h in series [1], in series [2] and in series [3] was above 100 µM throughout.
On to `CC#CC(=O)N1CCc2ccc(C(=O)NO)cc2C1` [Example 17, 2-But-2-ynoyl-N-hydroxy-1,2,3,4-tetrahydroisoquinoline-7-carboxamide], for which the IC50 was 10 to 100 µM at rHDAC3 and 0.1 to 10 µM at rHDAC1. In addition, the IC50 at 72 h in series [1] was above 100 µM; in series [2], 1 to 100 µM.
The matching figures for `O=C(NO)c1ccc2c(c1)CN(C(=O)Cc1c[nH]c3ccccc13)CC2` [Example 18, N-Hydroxy-2-(1H-indol-3-ylacetyl)-1,2,3,4-tetrahydroisoquinoline-7-carboxamide]: 1 to 10 µM, 0.1 to 10 µM, 1 to 100 µM and 1 to 100 µM.
For the compound `O=C(NO)c1ccc2c(c1)CN(C(=O)Cc1cccnc1)CC2` [Example 19, N-Hydroxy-2-(pyridin-3-ylacetyl)-1,2,3,4-tetrahydroisoquinoline-7-carboxamide hydrochloride], the IC50 at rHDAC3 is 10 to 100 µM; on rHDAC1, 0.1 to 10 µM. Also, the values for the IC50 at 72 h in series [1] and in series [2] were above 100 µM and 1 to 100 µM, respectively.
The matching figures for `O=C(NO)c1ccc2c(c1)CN(C(=O)Cc1ccccn1)CC2` [Example 21, N-Hydroxy-2-(pyridin-2-ylacetyl)-1,2,3,4-tetrahydroisoquinoline-7-carboxamide hydrochloride]: 10 to 100 µM, 0.1 to 10 µM, above 100 µM and 1 to 100 µM.
The matching figures for `O=C(NO)c1ccc2c(c1)CN(C(=O)NCCc1ccccc1)CC2` [Example 22, N7-Hydroxy-N2-(2-phenylethyl)-3,4-dihydroisoquinoline-2,7(1H)-dicarboxamide]: 1 to 10 µM, 0.1 to 10 µM, 1 to 100 µM and 1 to 100 µM.
The matching figures for `Cc1ccc(C(=O)N2CCc3ccc(C(=O)NO)cc3C2)cc1` [Example 23, N-Hydroxy-2-(4-methylbenzoyl)-1,2,3,4-tetrahydroisoquinoline-7-carboxamide]: 10 to 100 µM, 0.1 to 10 µM, 1 to 100 µM and 1 to 100 µM.

The values are drawn from patent publication US8575193B2, “N-substituted tetrahydroisoquinoline/isoindoline hydroxamic acid compounds” (4SC AG, priority 2008, dated 2013).
